Here are results for five compounds from patent EP0308065A2, “Therapeutic nucleosides” (priority 1987, dated 1989).

The structures appear in SMILES notation. Counter-ions that a name gives are not always drawn.

Data set [1] can be described thus: growth inhibition of uninfected mammalian cells (D98). The data set is classed as cell-based. Conditions: three days exposure, D-98 cells (human), read-out: Cell Toxicity (% of control at 100µm) D-98 Cells. As for the experimental part:
(§1) The capability of candidate compounds to inhibit the growth of D98 cells (human) and L cells (murine) was measured by determination of cell number following three days exposure of a standard number of cells to various dilutions of compound (Rideout, J. L., Krenitsky, T.A., Koszalka, G.W., Cohn, N.K., Chao, E.Y. Elion, G.B., Latter, V.S., and Williams, R.B. (1982) J. Med Chem. 25: 1040-1044). The cell number was then compared to the number obtained in the absence of compound. Cell enumeration was performed by either direct particle counts following trypsinization of the monolayer, or by spectrophotometric determination of the amount of vital stain taken up by the cells.
(§2) The concentration of compound resulting in 50% of control values (IC50) was calculated either by direct interpolation from graphs of the log of the compound concentration versus the percent of control value, or from a computer program which analyses the data according to the same algorithm. Data in the range of 20% to 80% of control were used in these calculations.

The nature of data set [2]: growth inhibition of uninfected mammalian cells (L cells). The data set is classed as cell-based. To be noted: mouse, three days exposure, L cells (murine), read-out: Cell Toxicity (% of control at 100µm) L-Cells. As to the method: as §1, §2
The subject of data set [3] is Herpes Simplex Virus (HSV 1). The experiment in a line: plaque reduction assay of HSV 1 in monolayers of Vero cells. Conditions: HSV 1, Vero cells, read-out: IC₅₀. It counts as cell-based. As to the method: Herpes Simplex Virus (HSV 1) was assayed in monolayers of Vero cells in multiwell trays. Activity of compounds was determined in the plaque reduction assay, in which a cell monolayer was infected with a suspension of HSV 1, and then overlaid with nutrient agarose in the form of a gel to ensure that there was no spread of virus throughout the culture. A range of concentrations of compound of known molarity was incorporated in the nutrient agarose overlay. Plaque numbers at each concentration were expressed as percentages of the control and a dose-response curve was drawn. From this curve the 50% inhibitory concentration (IC₅₀) was estimated.
(In general: In a plaque reduction assay, fewer plaques than in the control indicate reduced infectivity or spread.)

For data set [4] the following is noted: humans, after oral administration (background statement); cited from earlier work.
The nature of data set [5]: oral bioavailability: urinary recovery as acyclovir after gavage. Conditions: Long Evans rats, dose equivalent to 25 mg/kg acyclovir, urine collected 24 and 48 hours post-dose.
Method: Long Evans Rats were adminstered the compound to be tested by gavage at a dose equivalent to 25 mg/kg acyclovir. The urine was collected for 24 and 48 hours post-dose, ultrafiltered, and analysed by reverse-phase high-pressure liquid chromatography. The oral bioavailability of the compound was expressed as the percent of the dose excreted in the urine as acyclovir.

Regarding `Nc1nc2c(ncn2COCCO)c(=O)[nH]1` [Acyclovir, 9-(2-Hydroxyethoxymethyl)guanine], the activity at 72 h, 100 µM in data set [1] was found to be 99%; in data set [2], 72%. The IC50 in data set [3] is 80 to 100 nM. Besides, the “recovery in the urine” value in data set [4] is 20%.

Consider `CC(C)[C@H](N)C(=O)OCCOCn1cnc2c(=O)[nH]c(N)nc21` [Example 1B, 2-(2-Amino-1,6-dihydro-6-oxo-9H(purin-9-yl)methoxy) ethyl L-valinate hydrochloride monohydrate], for which the values for the activity at 72 h, 100 µM in data set [1] and in data set [2] were 91% and 85%, respectively.

With `CC[C@H](C)[C@H](N)C(=O)OCCOCn1cnc2c(=O)[nH]c(N)nc21` [Example 2, 2-(2-amino-1,6-dihydro-6-oxo-9H(purin-9-yl)methoxy)ethyl L-isoleucinate hydrochloride], the activity at 72 h, 100 µM in data set [1] turned out to be 80%; in data set [2] it was 83%. Also, the IC50 in data set [3] stood at 3800 nM. In addition, the “Urinary Recovery (% of dose) as acyclovir” value (shortened to “Urinary Recovery (% of dose)”) in data set [5] is on record as 50 % of dose.

With `NCC(=O)OCCOCn1cnc2c(=O)[nH]c(N)nc21` [Glycyl ester of ACV], in data set [5], the “Urinary Recovery (% of dose)” value is recorded as 30 % of dose.

As to `C[C@H](N)C(=O)OCCOCn1cnc2c(=O)[nH]c(N)nc21` [L -alanyl ester of ACV], the “Urinary Recovery (% of dose)” value in data set [5] is recorded as 34 % of dose.
